Laboratory results reported in the RepoRT retention time repository.

test: HILIC, Merck SeQuant ZIC-HILIC, 25 °C, 0.25 mL/min; A: water + 16 mM ammonium formate; B: acetonitrile + 0.1% formic acid, pH 3; gradient (min/%B) 0/97 2/97 10/70 15/10 17/10 18/97 25/97; settings: stereoisomer not certain

LC retention time [min]	SMILES
2.04	O=C(O)/C=C/c1c[nH]c2ccccc12 [trans-3-indoleacrylic acid]
2.14	Cc1c[nH]c(=O)[nH]c1=O [THYMINE]
2.08	CC(=O)NC(C(=O)O)C(C)C (racemic) [N-acetyl-DL-valine]
15.7	O=P(O)(O)OCC1OC(OP(=O)(O)OP(=O)(O)O)C(O)C1O (stereo not drawn) [PHOSPHORIBOSYL PYROPHOSPHATE]
2.08	COc1cc(C(=O)O)ccc1O [Vanillic acid]
11.2	CCCCC(N)C(=O)O (stereo not drawn) [NORLEUCINE]
1.74	NC(=O)c1ccccc1O [SALICYLAMIDE]
2.18	CC(CC(=O)O)C(=O)O (stereo not drawn) [Methyl-succinic acid]
1.52	CCCCCCCCC=CCCCCCCCCCCCCCC(=O)[O-] [NERVONATE]
15.1	OCC1OC(OCC2OC(OCC3OC(OC4(CO)OC(CO)C(O)C4O)C(O)C(O)C3O)C(O)C(O)C2O)C(O)C(O)C1O (stereo not drawn) [STACHYOSE]
2.18	CSCCC(NC(C)=O)C(=O)O (stereo not drawn) [N-ACETYLMETHIONINE]
5.36	O=C(O)C(O)Cc1ccc(O)cc1 (stereo not drawn) [HYDROXYPHENYLLACTATE]
9.75	CC(=O)NC(CC(N)=O)C(=O)O (stereo not drawn) [N-ACETYLASPARAGINE]
14.1	OCC1OC(OC2OC(CO)C(O)C(O)C2O)C(O)C(O)C1O (stereo not drawn) [TREHALOSE]
2.21	Cn1cc(C(N)=O)ccc1=O [N-methyl-2-pyridone-5-carboxamide]
2.16	O=c1c(O)c(-c2ccc(O)c(O)c2)oc2cc(O)cc(O)c12 [quercetine dihydrate]
2.11	CC(C)C(=O)O [ISOBUTYRATE]
14.7	NC(=O)c1ccc[n+](C2OC(COP(=O)([O-])O)C(O)C2O)c1 (stereo not drawn) [NICOTINAMIDE MONONUCLEOTIDE]
8.88	O=C(O)c1cccnc1C(=O)O [QUINOLINATE]

Further lines, the molecule ahead of its results:

SMILES	LC retention time [min]
NC(CCS)C(=O)O (stereo not drawn) [HOMOCYSTEINE]	12.4
CC(CCC(=O)O)C1CCC2C3C(O)CC4CC(O)CCC4(C)C3CC(O)C12C (stereo not drawn) [CHOLATE]	2.18
O=C(O)c1cccc(O)c1 [3-HYDROXYBENZOATE]	2.15
O=C(OC1Cc2c(O)cc(O)cc2OC1c1cc(O)c(O)c(O)c1)c1cc(O)c(O)c(O)c1 (single isomer, unassigned; (-)) [(-)-Epigallocatechin gallate]	12.4
O=C1OC(CO)C(O)C(O)C1O (stereo not drawn) [GLUCONOLACTONE]	14.5
CC(C)(N)C(=O)O [2-AMINOISOBUTYRATE]	13
CC(CCC(=O)O)C1CCC2C3C(O)C(O)C4CC(O)CCC4(C)C3CCC12C (stereo not drawn) [5b-cholanic acid-3a-6a-7a-TRIOL]	2.19
NCC(=O)NCC(=O)O [Gly-Gly]	14.9
OCc1ccccc1O [2-Hydroxybenzyl alcohol ( Salicyl alcohol- Saligenin)]	1.95
O=C(O)c1c(O)cccc1O [2-6-Dihydroxybenzoic acid]	2.07
O=c1ccn(C2CC(O)C(CO)O2)c(=O)[nH]1 (stereo not drawn) [DEOXYURIDINE]	2.45
NC(CCSCC(N)C(=O)O)C(=O)O (stereo not drawn) [CYSTATHIONINE]	15.4
NC(N)=NCC(=O)O [GUANIDINOACETATE]	14
NCCP(=O)(O)O [(2-AMINOETHYL)PHOSPHONATE]	15
C[C@H](O)CC(=O)O [(S)-3-Hydroxybutyric acid]	2.16
O=C(O)c1cccc(O)c1O [2-3-DIHYDROXYBENZOATE]	2.14
CCCCC(CC)COC(=O)c1ccccc1C(=O)OCC(CC)CCCC (stereo not drawn) [BIS(2-ETHYLHEXYL)PHTHALATE]	1.48
CC(C)(CC(=O)O)C(=O)O [2-2-Dimethylsuccinic acid]	2.18
NCC(=O)CCC(=O)O [5-AMINOLEVULINATE]	13.8
